Experimental data from patent US6737383B1, “Herbicidal oxadiazolidines” (priority 1999, dated 2004).

Columns and labels:
[1] = tested on: Spanishneedles; test: Test D Spanishneedles; assay type: in vivo, Bidens bipinnata; conditions: Preemergence, 0 to 100 scale
Procedure, shortened: (§1)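 Visual injury ratings, 0 = no injury to 100 = complete control, taken 14 to 21 days after treatment. Test chemicals were in a surfactant-containing non-phytotoxic solvent; preemergence treatments went onto the sandy loam surface of seeded greenhouse pots within one day of sowing.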

[2] = tested on: goosegrass; test: Test D goosegrass; assay type: in vivo, Eleusine indica; conditions: Preemergence, 0 to 100 scale
Source text: (§2) Seeds, tubers, or plant parts of Alexandergrass (Brachiaria plantaginea), bermuda-grass (Cynodon dactylon), common pursiane (Portulaca oleracea), common ragweed (Ambrosia elatior), common groundsel (Senecio vulgaris), dallisgrass (Paspalum dilatatum), goosegrass (Eleusine indica), guineagrass (Panicum maximum), itchgrass (Rottboellia exaltata), Johnson grass (Sorghum halepense), large crabgrass (Digitaria sanguinalis), pitted morningglory (Ipomoea lacunosa), purple nutsedge (Cyperus rotundus), sandbur (Cenchrus echinatus), sourgrass (Trichachne insularis), Spanishneedles (Bidens bipinnata), surinam grass (Brachiaria decumbens) and tall mallow (Malva sylvestris) were planted into greenhouse pots of flats containing greenhouse planting medium. Plant species were grown in separate pots or individual compartments. Preemergence applications were made within one day of planting the seed or plant part.
(§3) Test chemicals were formulated in a non-phytotoxic solvent mixture which included a surfactant and applied preemergence to the surface of the pot containing seeds in a sandy loam soil. Untreated control pots and treated pots were placed in the greenhouse for growth and visually evaluated for injury 14 to 21 days after herbicide application. Plant response ratings, summarized in Table C, are based on a 0 to 100 scale where 0 is no injury and 100 is complete control. A dash (−) response means no test result.

[3] = tested on: Johnson grass; test: Test D Johnson grass; assay type: in vivo, Sorghum halepense; conditions: Preemergence, 0 to 100 scale
Source text: as §2, §3

[4] = tested on: Alexandergrass; test: Test D Alexandergrass; assay type: in vivo, Brachiaria plantaginea; conditions: Preemergence, 0 to 100 scale
Procedure, shortened: as §1

[5] = tested on: surinam grass; test: Test D surinam grass; assay type: in vivo, Brachiaria decumbens; conditions: Preemergence, 0 to 100 scale
Procedure, shortened: as §1

[6] = tested on: pitted morningglory; test: Test D pitted morningglory; assay type: in vivo, Ipomoea lacunosa; conditions: Preemergence, 0 to 100 scale
Procedure, shortened: as §1

[7] = tested on: common groundsel; test: Test D common groundsel; assay type: in vivo, Senecio vulgaris; conditions: Preemergence, 0 to 100 scale
Source text: as §2, §3

[8] = tested on: purple nutsedge; test: Test D purple nutsedge; assay type: in vivo, Cyperus rotundus; conditions: Preemergence, 0 to 100 scale
Procedure, shortened: as §1

[9] = tested on: tall mallow; test: Test D tall mallow; assay type: in vivo, Malva sylvestris; conditions: Preemergence, 0 to 100 scale
Procedure, shortened: as §1

[10] = tested on: guineagrass; test: Test D guineagrass; assay type: in vivo, Panicum maximum; conditions: Preemergence, 0 to 100 scale
Procedure, shortened: as §1

[11] = tested on: Green foxtail; test: Test D green foxtail; assay type: in vivo; conditions: Preemergence, 0 to 100 scale
Source text: as §2, §3

[12] = tested on: bermuda-grass; test: Test D bermudagrass; assay type: in vivo, Cynodon dactylon; conditions: Preemergence, 0 to 100 scale
Procedure, shortened: as §1

[13] = tested on: dallisgrass; test: Test D dallisgrass; assay type: in vivo, Paspalum dilatatum; conditions: Preemergence, 0 to 100 scale
Source text: as §2, §3

[14] = tested on: large crabgrass; test: Test D large crabgrass; assay type: in vivo, Digitaria sanguinalis; conditions: Preemergence, 0 to 100 scale
Procedure, shortened: as §1

[15] = tested on: sandbur; test: Test D sandbur; assay type: in vivo, Cenchrus echinatus; conditions: Preemergence, 0 to 100 scale
Source text: as §2, §3

[16] = tested on: Green foxtail; test: Test D green foxtail; assay type: in vivo
Procedure, shortened: as §1

[17] = tested on: itchgrass; test: Test D itchgrass; assay type: in vivo, Rottboellia exaltata; conditions: Preemergence, 0 to 100 scale
Procedure, shortened: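 Scoring used a 0–100 visual injury scale, with 0 meaning no effect and 100 complete control, assessed 14–21 days after application alongside untreated pots. Preemergence treatments went onto sandy loam surfaces of separately potted seeds within a day of sowing.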

[18] = Rate 16 g/ha, 0 no injury, 100 complete control
[19] = Rate 32 g/ha, 0 no injury, 100 complete control
[20] = Rate 64 g/ha, 0 no injury, 100 complete control
[21] = Rate 125 g/ha, 0 no injury, 100 complete control
[22] = Rate 64 g/ha, Preemergence; 0 to 100 scale, 0 no injury, 100 complete control
[23] = Rate 125 g/ha, Preemergence; 0 to 100 scale, 0 no injury, 100 complete control

C=CCn1c(=O)on(C(=O)N(c2ccc(Cl)cc2)C(C)C)c1=O [Compound 105]
20: Plant response rating Johnsongrass [3, 21] | Plant response rating, Itchgrass [17, 20] | Plant response rating, Itchgrass [17, 21]
45: Tall Mallow plant response rating [9, 21]
40: Surinam grass plant response rating [5, 21] | Plant response rating, Tall Mallow [9, 21] | Plant response rating, Guineagrass [10, 18] | Plant response rating Large crabgrass [14, 18]
90: Plant response rating Johnsongrass ([3]; Rate 500 g/ha)
100: Plant response rating, Goosegrass ([2]; Rate 250 g/ha) | Plant response rating, Goosegrass ([2]; Rate 500 g/ha) | Plant response rating, Alexandergrass ([4]; Rate 500 g/ha) | Plant response rating, Surinam grass ([5]; Rate 500 g/ha) | Plant response rating, Guineagrass ([10]; Rate 250 g/ha) | Plant response rating, Guineagrass ([10]; Rate 500 g/ha) | Plant response rating, Green foxtail ([11]; Rate 250 g/ha) | Plant response rating, Green foxtail ([11]; Rate 500 g/ha) | Plant response rating, Bermudagrass [12, 21] | Plant response rating, Bermudagrass ([12]; Rate 250 g/ha) | Plant response rating, Bermudagrass ([12]; Rate 500 g/ha) | Plant response rating, Dallisgrass [13, 21] | Plant response rating, Dallisgrass ([13]; Rate 250 g/ha) | Plant response rating, Dallisgrass ([13]; Rate 500 g/ha) | Plant response rating Large crabgrass [14, 20] | Plant response rating Large crabgrass [14, 21] | Plant response rating Large crabgrass ([14]; Rate 250 g/ha) | Plant response rating Large crabgrass ([14]; Rate 500 g/ha) | Plant response rating, Sandbur ([15]; Rate 500 g/ha) | Plant response rating, Green foxtail ([16]; Rate 32 g/ha; Preemergence; 0 to 100 scale, 0 no injury, 100 complete control) | Green foxtail plant response rating [16, 22] | Plant response rating, Green foxtail [16, 22] | Green foxtail plant response rating [16, 23] | Plant response rating, Green foxtail [16, 23] | Plant response rating, Green foxtail ([16]; Rate 250 g/ha; Preemergence; 0 to 100 scale) | Plant response rating, Green foxtail ([16]; Rate 500 g/ha, Preemergence; 0 to 100 scale)
85: Plant response rating, Goosegrass [2, 18] | Plant response rating, Alexandergrass [4, 20] | Plant response rating, Guineagrass [10, 19] | Plant response rating, Bermudagrass [12, 18] | Plant response rating, Green foxtail ([16]; Preemergence; Rate 32 g/ha; 0 to 100 scale, 0 no injury, 100 complete control) | Plant response rating, Itchgrass ([17]; Rate 250 g/ha) | Plant response rating, Itchgrass ([17]; Rate 500 g/ha)
98: Plant response rating, Goosegrass [2, 19] | Plant response rating, Goosegrass [2, 20] | Plant response rating, Goosegrass [2, 21] | Plant response rating, Alexandergrass [4, 21] | Plant response rating, Alexandergrass ([4]; Rate 250 g/ha) | Plant response rating, Surinam grass ([5]; Rate 250 g/ha) | Plant response rating, Guineagrass [10, 20] | Plant response rating, Guineagrass [10, 21] | Plant response rating, Bermudagrass [12, 19] | Plant response rating, Bermudagrass [12, 20] | Plant response rating, Dallisgrass [13, 19] | Plant response rating, Dallisgrass [13, 20] | Plant response rating Large crabgrass [14, 19] | Plant response rating, Sandbur ([15]; Rate 250 g/ha)
80: Plant response rating, Com. groundsel ([7]; Rate 500 g/ha)
60: Plant response rating, Dallisgrass [13, 18]
0: Plant response rating, Spanishneedles [1, 18] | Plant response rating, Spanishneedles [1, 19] | Spanishneedles plant response rating [1, 20] | Spanishneedles plant response rating [1, 21] | Plant response rating, Spanishneedles ([1]; Rate 500 g/ha) | Plant response rating Johnsongrass [3, 18] | Plant response rating Johnsongrass [3, 19] | Plant response rating Johnsongrass [3, 20] | Plant response rating, Alexandergrass [4, 18] | Plant response rating, Surinam grass [5, 18] | Plant response rating, Surinam grass [5, 19] | Surinam grass plant response rating [5, 20] | Plant response rating, P. morninglory [6, 18] | Plant response rating, P. morninglory [6, 19] | Plant response rating, P. morninglory [6, 20] | Plant response rating, P. morninglory [6, 21] | Plant response rating, P. morninglory ([6]; Rate 250 g/ha) | Plant response rating, P. morninglory ([6]; Rate 500 g/ha) | Plant response rating, Com. groundsel [7, 18] | Plant response rating, Com. groundsel [7, 19] | Plant response rating, Com. groundsel [7, 20] | Plant response rating, Com. groundsel [7, 21] | Plant response rating, Com. groundsel ([7]; Rate 250 g/ha) | Plant response rating, Purple nutsedge [8, 18] | Plant response rating, Purple nutsedge [8, 19] | Purple nutsedge plant response rating [8, 20] | Purple nutsedge plant response rating [8, 21] | Plant response rating, Purple nutsedge ([8]; Rate 250 g/ha) | Plant response rating, Tall Mallow [9, 18] | Plant response rating, Tall Mallow [9, 19] | Tall Mallow plant response rating [9, 20] | Plant response rating, Sandbur [15, 18] | Plant response rating, Sandbur [15, 19] | Sandbur plant response rating [15, 20] | Sandbur plant response rating [15, 21] | Plant response rating, Itchgrass [17, 18] | Plant response rating, Itchgrass [17, 19]
75: Plant response rating Johnsongrass ([3]; Rate 250 g/ha) | Plant response rating, Purple nutsedge ([8]; Rate 500 g/ha) | Plant response rating, Tall Mallow ([9]; Rate 250 g/ha) | Plant response rating, Tall Mallow ([9]; Rate 500 g/ha) | Plant response rating, Green foxtail ([16]; Preemergence; Rate 16 g/ha; 0 to 100 scale, 0 no injury, 100 complete control) | Plant response rating, Green foxtail ([16]; Rate 16 g/ha; Preemergence; 0 to 100 scale, 0 no injury, 100 complete control)
30: Plant response rating, Alexandergrass [4, 19]

CCCn1c(=O)on(C(=O)N(c2ccc(F)cc2F)C(C)C)c1=O [Compound 130]
0: Plant response rating, Com. groundsel [7, 20] | Purple nutsedge plant response rating [8, 20]
80: Surinam grass plant response rating [5, 20] | Plant response rating, Itchgrass [17, 20]
60: Spanishneedles plant response rating [1, 20]
98: Plant response rating, Alexandergrass [4, 20]
85: Tall Mallow plant response rating [9, 20]
100: Plant response rating, Goosegrass [2, 20] | Plant response rating, Guineagrass [10, 20] | Plant response rating, Bermudagrass [12, 20] | Plant response rating, Dallisgrass [13, 20] | Plant response rating Large crabgrass [14, 20] | Sandbur plant response rating [15, 20] | Green foxtail plant response rating [16, 22] | Plant response rating, Green foxtail [16, 22]
65: Plant response rating Johnsongrass [3, 20] | Plant response rating, P. morninglory [6, 20]
